The text below walks through data of US12497642B2, “Incorporation of unnatural nucleotides and methods of use in vivo thereof” (THE SCRIPPS RESEARCH INSTITUTE, priority 2017, dated 2025).

The subject of this assay is semi-synthetic organism (SSO) (strain YZ3). Kind of assay: Replication and UBP retention in vivo in the semi-synthetic organism (streptavidin biotin shift, PAGE), Example 1. Format: cell-based, Escherichia coli. The conditions noted are these: for UBP retention in vivo, in words: discussion. How it is done: All bacteria were cultured in 100 μL of liquid 2×YT media (casein peptone 16 g/L, yeast extract 10 g/L, NaCl 5 g/L) supplemented with potassium phosphate (50 mM, pH 7) in 96-well microwell plates. When noted, antibiotics were used at the following concentrations: chloramphenicol, 5 μg/mL; ampicillin, 100 μg/mL. Cell growth, indicated as OD600, was measured using a Perkin Elmer EnVision 2103 Multilabel Reader with a 590/20 nm filter. Unless otherwise stated, molecular biology reagents were purchased from New England Biolabs (Ipswich, MA) and were used according to the manufacturer's protocols. As necessary, purification of nucleic acids was accomplished by micro-elution columns (Zymo Research Corp; Irvine, CA). All natural oligonucleotides were purchased from IDT (San Diego, CA), and oligonucleotides containing dNaM were synthesized by Biosearch Technologies (Petaluma, CA) with purification by reverse phase cartridge. Unnatural nucleotide triphosphates were prepared, and confirmed by MALDI-TOF and UV/Vis.
Plasmids containing the dNaM-dTPT3 UBP were prepared and used to transform the semi-synthetic organism (SSO). To create a template for in vivo replication assays, Golden Gate assembly was used to construct a derivative of the pUC19 plasmid in which a single dNaM-dTPT3 UBP was embedded within the TK1 sequence ([…]; […]), a context within which the UBP is well replicated in the SSO. Plasmids were then used to transform the SSO (strain YZ3). Following transformation, the SSO was allowed to recover at 37° C. for 1 h in media containing dNaMTP (125 μM) and dTPT3TP (25 μM). Cells were pelleted by centrifugation, resuspended in fresh media lacking unnatural triphosphates, split into 100-μL aliquots and then used to inoculate cultures containing different pairs of unnatural triphosphates at the specified concentrations. When the cell density reached an OD600 of ˜0.7, cells were pelleted and plasmids were recovered and PCR amplified with d5SICSTP and a biotinylated analog of dNaMTP, and UBP retention was determined by comparing the intensity of the streptavidin shifted and unshifted bands via PAGE.

[1] abbreviates: context 1, dNaMTP 125 μM, dTPT3TP analog 125 μM.
Where [2] appears, read: context 2 (AXA), dTPT3TP 2.5 μM, dNaMTP analog 2.5 μM.
Where [3] appears, read: context 2 (AXA), dTPT3TP 2.5 μM, dNaMTP analog 10 μM.
[4] abbreviates: context 2 (AXA), dTPT3TP 2.5 μM, dNaMTP analog 25 μM.
[5] abbreviates: context 2 (AXA), dTPT3TP 10 μM, dNaMTP analog 2.5 μM.
[6] abbreviates: context 2 (AXA), dTPT3TP 10 μM, dNaMTP analog 10 μM.
[7] abbreviates: context 2 (AXA), dTPT3TP 10 μM, dNaMTP analog 25 μM.
Where [8] appears, read: context 2 (AXA), dTPT3TP 25 μM, dNaMTP analog 2.5 μM.
[9] abbreviates: context 2 (AXA), dTPT3TP 25 μM, dNaMTP analog 10 μM.
Where [10] appears, read: context 2 (AXA), dTPT3TP 25 μM, dNaMTP analog 25 μM.
Setting [11] is: context 2 (AXA), paired with dSICSTP 10 μM, dNaMTP analog 25 μM.
Where [12] appears, read: context 3 (CXC), dTPT3TP 2.5 μM, dNaMTP analog 2.5 μM.
[13] abbreviates: context 3 (CXC), dTPT3TP 2.5 μM, dNaMTP analog 10 μM.
[14] abbreviates: context 3 (CXC), dTPT3TP 2.5 μM, dNaMTP analog 25 μM.
The mark [15] stands for this setting: context 3 (CXC), dTPT3TP 10 μM, dNaMTP analog 2.5 μM.
The mark [16] stands for this setting: context 3 (CXC), dTPT3TP 10 μM, dNaMTP analog 10 μM.
Setting [17] is: context 3 (CXC), dTPT3TP 10 μM, dNaMTP analog 25 μM.
[18] abbreviates: context 3 (CXC), dTPT3TP 25 μM, dNaMTP analog 2.5 μM.
The mark [19] stands for this setting: context 3 (CXC), dTPT3TP 25 μM, dNaMTP analog 10 μM.
Setting [20] is: context 3 (CXC), dTPT3TP 25 μM, dNaMTP analog 25 μM.
[21] abbreviates: dNaMTP analog paired with dTPT3TP.

Each structure is given as a SMILES string. “And” between values parts separate entries of the source, which are not always exact repeats. Identical values can stand only once.

Consider `Cc1ccc2ccn(C3CC(O)C(COP(=O)(O)OP(=O)(O)OP(=O)(O)O)O3)c(=S)c2c1` (stereo not drawn) [d4SICS], for which the UBP retention result under setting [1] is “significant UBP retention”.

For `COc1cc(C)c(F)cc1C1CC(O)C(COP(=O)(O)OP(=O)(O)OP(=O)(O)O)O1` (stereo not drawn) [d5FMTP], the “UBP retention (%)” value amounted to 47 ± 14% under setting [2]; 61 ± 27% under setting [3]; 75 ± 6% under setting [4]; 69 ± 6% under setting [5]; 83 ± 5% under setting [6]; 87 ± 12% under setting [7]. For the same compound, the “UBP retention (%)” value under setting [8] stood at 76 ± 9%; the “UBP retention (%)” value under setting [9] was determined as 95 ± 3%; the “UBP retention (%)” value under setting [10] amounted to 90 ± 7%; the “UBP retention (%)” value under setting [12] turned out to be 9 ± 6%; the “UBP retention (%)” value under setting [13] was 10 ± 5%; the “UBP retention (%)” value under setting [14] is reported as 11 ± 8%. For the same compound, the “UBP retention (%)” value under setting [15] is 6 ± 4%; the “UBP retention (%)” value under setting [16] is 14 ± 5%; the “UBP retention (%)” value under setting [17] is given as 27 ± 14%; the “UBP retention (%)” value under setting [18] was 14 ± 3%; the “UBP retention (%)” value under setting [19] is listed as 33 ± 16%; the “UBP retention (%)” value under setting [20] was 49% and 49 ± 27%. For the same compound, the UBP retention under setting [11] is recorded as 68%.

As to `COc1cc(C#N)ccc1C1CC(O)C(COP(=O)(O)OP(=O)(O)OP(=O)(O)O)O1` (stereo not drawn) [dCNMOTP], the “UBP retention (%)” value by setting is: (Table 5, sequence context 1 (AXT), dTPT3TP 25 μM, dNaMTP or dCNMOTP 25 μM) 98%; (Table 5, sequence context 1 (AXT), dTPT3TP 25 μM, dNaMTP or dCNMOTP 25 μM, listed as dCNMO) 98 ± 7%; (Table 5, sequence context 1 (AXT), dTPT3TP 25 μM, dNaMTP or dCNMOTP 125 μM) 99 ± 8%; (Table 5, sequence context 2 (AXA), dTPT3TP 25 μM, dNaMTP or dCNMOTP 25 μM) 101 ± 10%; (Table 5, sequence context 2 (AXA), dTPT3TP 25 μM, dNaMTP or dCNMOTP 125 μM) 100 ± 10%; (Table 5, sequence context 3 (CXC), dTPT3TP 25 μM, dNaMTP or dCNMOTP 25 μM) 42%. Besides, the “UBP retention (%)” value is, setting by setting: (Table 5, sequence context 3 (CXC), dTPT3TP 25 μM, dNaMTP or dCNMOTP 25 μM, listed as dCNMO) 42 ± 18%; (Table 5, sequence context 3 (CXC), dTPT3TP 25 μM, dNaMTP or dCNMOTP 125 μM) 65%; (Table 5, sequence context 3 (CXC), dTPT3TP 25 μM, dNaMTP or dCNMOTP 125 μM, listed as dCNMO) 65 ± 7%; (Table 5, sequence context 4 (CXG), dTPT3TP 25 μM, dNaMTP or dCNMOTP 25 μM) 14 ± 5%; (Table 5, sequence context 4 (CXG), dTPT3TP 25 μM, dNaMTP or dCNMOTP 125 μM) 24%; (Table 5, sequence context 4 (CXG), dTPT3TP 25 μM, dNaMTP or dCNMOTP 125 μM, listed as dCNMO) 24 ± 13%. In addition, the “UBP retention (%)” value is given as 92 ± 4% under setting [2]; 82 ± 24% under setting [3]; 91 ± 10% under setting [4]; 88 ± 9% under setting [5]; 91 ± 3% under setting [6]; 95 ± 2% under setting [7]. Moreover, the “UBP retention (%)” value is listed as 103 ± 7% under setting [8]; 103 ± 1% under setting [9]; 101 ± 10% under setting [10]; 9 ± 1% under setting [12]; 22 ± 10% under setting [13]; 31 ± 14% under setting [14]. Besides, the “UBP retention (%)” value is 13 ± 5% under setting [15]; 28 ± 7% under setting [16]; 35 ± 8% under setting [17]; 22 ± 7% under setting [18]; 25 ± 22% under setting [19]; 42% and 42 ± 18% under setting [20]. Further, the UBP retention under setting [11] is recorded as 59%.

Consider `COc1cc(Cl)ccc1C1CC(O)C(COP(=O)(O)OP(=O)(O)OP(=O)(O)O)O1` (stereo not drawn) [dClMOTP], for which the “UBP retention (%)” value is reported as 73 ± 10% under setting [2]; 84 ± 7% under setting [3]; 86 ± 6% under setting [4]; 83 ± 9% under setting [5]; 89 ± 5% under setting [6]; 96 ± 2% under setting [7]. For the same compound, the “UBP retention (%)” value is, setting by setting: under setting [8], 80 ± 20%; under setting [9], 92 ± 4%; under setting [10], 98 ± 4%; under setting [12], 9 ± 2%; under setting [13], 7 ± 4%; under setting [14], 12 ± 2%. The “UBP retention (%)” value came out at 9 ± 1% under setting [15]; 15 ± 2% under setting [16]; 14 ± 5% under setting [17]; 8 ± 4% under setting [18]; 20 ± 7% under setting [19]; 21% under setting [20]. In addition, the “UBP retention (%)” value (context 3 (CXC), dTPT3TP 25 μM, dNaMTP analog 25 μM, listed as dCIMOTP) is listed as 21 ± 14%. The UBP retention under setting [11] was found to be 61%.

As to `C#Cc1cc(OC)c(C2CC(O)C(COP(=O)(O)OP(=O)(O)OP(=O)(O)O)O2)cc1F` (stereo not drawn) [dFEMOTP], the “UBP retention in vivo, in words” value under setting [21] is reported as “well retained in vivo when supplemented at high concentrations”.

For the compound `Cc1cc2c(=S)n(C3CC(O)C(COP(=O)(O)OP(=O)(O)OP(=O)(O)O)O3)ccc2o1` (stereo not drawn) [dFPT1], the UBP retention entry under setting [1] is listed as “significant UBP retention”.

On to `COc1cc(C)ccc1C1CC(O)C(COP(=O)(O)OP(=O)(O)OP(=O)(O)O)O1` (stereo not drawn) [dMMO2TP], for which the “UBP retention (%)” value is, setting by setting: under setting [2], 17 ± 8%; under setting [3], 54 ± 19%; under setting [4], 47 ± 20%; under setting [5], 68 ± 16%; under setting [6], 67 ± 16%; under setting [7], 88 ± 7%. Besides, the “UBP retention (%)” value reads like this: under setting [8], 63 ± 31%; under setting [9], 86 ± 11%; under setting [10], 90 ± 4%; under setting [12], 5 ± 3%; under setting [13], 10 ± 3%; under setting [14], 13 ± 4%. The “UBP retention (%)” value is 9 ± 3% under setting [15]; 16 ± 10% under setting [16]; 22 ± 10% under setting [17]; 19 ± 8% under setting [18]; 36 ± 12% under setting [19]; 45% and 45 ± 20% under setting [20]. In addition, the UBP retention under setting [11] was found to be 19%.

Regarding `O=P(O)(O)OP(=O)(O)OP(=O)(O)OCC1OC(n2ccc3ccccc3c2=S)CC1O` (stereo not drawn) [dSICSTP], the UBP retention result under setting [1] is “significant UBP retention”.

`O=P(O)(O)OP(=O)(O)OP(=O)(O)OCC1OC(n2ccc3ncccc3c2=S)CC1O` (stereo not drawn) [dSNICS]: under setting [1], the UBP retention result is recorded as “significant UBP retention”. The “UBP retention in vivo, in words” value (dTPT3TP analog paired with dNaMTP) was “moderate retention at both low and high concentrations”.

Consider `Cc1cc2c(=S)n(C3CC(O)C(COP(=O)(O)OP(=O)(O)OP(=O)(O)O)O3)ccc2s1` (stereo not drawn) [dTPT1], for which the UBP retention result under setting [1] is given as “significant UBP retention”.

On to `O=P(O)(O)OP(=O)(O)OP(=O)(O)OCC1OC(n2ccc3ccsc3c2=S)CC1O` (stereo not drawn) [dTPT3TP], for which the UBP retention result runs as follows: under setting [1], “significant UBP retention”; (context 2 (AXA), dTPT3TP 10 μM paired with each of the four dNaMTP analogs at 25 μM) above 87%.

On to `COc1cc(N=[N+]=[N-])ccc1C1CC(O)C(COP(=O)(O)OP(=O)(O)OP(=O)(O)O)O1` (stereo not drawn) [dZMOTP], for which the “UBP retention in vivo, in words” value under setting [21] is recorded as “well retained in vivo when supplemented at high concentrations”.
